Assay results published in patent US20100152047A1, “Piperazine Compounds Whith a Herbicidal Action” (BASF SE, priority 2007, published 2010).

What was measured:
Assay type in all cases: in vivo
[1] = tested on: AMARE (Amaranthus retoflexus, redroot pigweed); assay: greenhouse herbicidal test, post-emergence, AMARE; settings: post-emergence method, application rate 0.5 kg/ha, scale from 0 to 100
Description: (§1) The culture containers used were plastic flowerpots containing loamy sand with approximately 3.0% of humus as the substrate. The seeds of the test plants were sown separately for each species.
(§2) For the post-emergence treatment, the test plants were first grown to a height of 3 to 15 cm, depending on the plant habit, and only then treated with the active ingredients which had been suspended or emulsified in water. For this purpose, the test plants were either sown directly and grown in the same containers, or they were first grown separately as seedlings and transplanted into the test containers a few days prior to treatment.
(§3) Depending on the species, the plants were kept at 10-25° C. or 20-35° C. The test period extended over 2 to 4 weeks. During this time, the plants were tended, and their response to the individual treatments was evaluated.
(§4) Evaluation was carried out using a scale from 0 to 100. 100 means no emergence of the plants, or complete destruction of at least the aerial moieties, and 0 means no damage, or normal course of growth. A good herbicidal activity is given at values of at least 70 and a very good herbicidal activity is given at values of at least 85.
(§5) The plants used in the greenhouse experiments belonged to the following species: […]

[2] = tested on: SETVI (Setaria viridis, green foxtail); assay: greenhouse herbicidal test, post-emergence, SETVI; settings: post-emergence method, application rate 0.5 kg/ha, scale from 0 to 100
Description: as §1, §2, §3, §4, §5

[3] = tested on: CHEAL (Chenopodium album, common lambsquarters); assay: greenhouse herbicidal test, post-emergence, CHEAL; settings: post-emergence method, application rate 0.5 kg/ha, scale from 0 to 100
Description: as §1, §2, §3, §4, §5

[4] = tested on: LOLMU (Lolium multiflorum, Italian ryegrass); assay: greenhouse herbicidal test, post-emergence, LOLMU; settings: post-emergence method, application rate 0.5 kg/ha, scale from 0 to 100
Description: as §1, §2, §3, §4, §5

[5] = tested on: CHEAL (Chenopodium album, common lambsquarters); assay: greenhouse herbicidal test, pre-emergence, CHEAL; settings: pre-emergence method, application rate 0.5 kg/ha, scale from 0 to 100
Description: as §1
(§6) For the pre-emergence treatment, the active ingredients, which had been suspended or emulsified in water, were applied directly after sowing by means of finely distributing nozzles. The containers were irrigated gently to promote germination and growth and subsequently covered with transparent plastic hoods until the plants had rooted. This cover caused uniform germination of the test plants, unless this has been impaired by the active ingredients.
as §3, §4, §5

[6] = tested on: SETVI (Setaria viridis, green foxtail); assay: greenhouse herbicidal test, pre-emergence, SETVI; settings: pre-emergence method, application rate 0.5 kg/ha, scale from 0 to 100
Description: as §1, §6, §3, §4, §5

[7] = tested on: APESV (Apera spica-venti, windgrass); assay: greenhouse herbicidal test, post-emergence, APESV; settings: post-emergence method, application rate 0.5 kg/ha, scale from 0 to 100
Description: as §1, §2, §3, §4, §5

[8] = tested on: GALAP (Galium aparine, catchweed bedstraw); assay: greenhouse herbicidal test, post-emergence, GALAP; settings: post-emergence method, application rate 0.5 kg/ha, scale from 0 to 100
Description: as §1, §2, §3, §4, §5

Structure (SMILES) | herbicidal activity against AMARE [1] | herbicidal activity against SETVI [2] | herbicidal activity against CHEAL [3] | other results
CN1C(=O)C(C)(Cc2ccccc2)N(C)C(=O)C1=Cc1ccccc1[N+](=O)[O-] (mixture of isomers) [Example 26] | good to very good | good to very good | – | –
CN1C(=O)C(C)(Cc2ccccc2)N(C)C(=O)C1=Cc1ccccc1C#N (racemic) [Example 7] | good to very good | good to very good | good to very good | –
CN1C(=O)C(C)(Cc2ccccc2)N(C)C(=O)C1=Cc1ccccc1Br (racemic) [Example 10] | – | good to very good | – | herbicidal activity against LOLMU [4]: good (A good herbicidal activity is given at values of at least 70)
CN1C(=O)C(C)(Cc2ccccc2)N(C)C(=O)C1=Cc1c(Cl)cccc1Br (racemic) [Example 11] | good to very good | good to very good | good to very good | –
CN1C(=O)C(C)(Cc2ccccc2)N(C)C(=O)C1=Cc1c(F)cccc1C#N (racemic) [Example 12] | good to very good | good to very good | good to very good | –
CN1C(=O)C(C)(Cc2ccccc2)N(C)C(=O)C1=Cc1c(Cl)cccc1C#N (racemic) [Example 13] | good to very good | good to very good | good to very good | –
COc1cccc(C#N)c1C=C1C(=O)N(C)C(C)(Cc2ccccc2)C(=O)N1C (racemic) [Example 14] | – | good to very good | good to very good | –
Cc1cccc(C#N)c1C=C1C(=O)N(C)C(C)(Cc2ccccc2)C(=O)N1C (racemic) [Example 16] | good to very good | good to very good | good to very good | –
CN1C(=O)C(C)(Cc2ccccc2)N(C)C(=O)C1=Cc1c(C#N)ccc(F)c1F (racemic) [Example 18] | good to very good | good to very good | good to very good | –
CC(C)C1(Cc2ccccc2)C(=O)N(C)C(=Cc2ccccc2C#N)C(=O)N1C (racemic) [Example 24] | good to very good | – | – | –
CN1C(=O)C(CO)(Cc2ccccc2)N(C)C(=O)C1=Cc1ccccc1C#N (racemic) [Example 25] | – | good to very good | good to very good | herbicidal activity against CHEAL [5]: good (A good herbicidal activity is given at values of at least 70); herbicidal activity against SETVI [6]: good (A good herbicidal activity is given at values of at least 70)
CCc1cccc(C#N)c1C=C1C(=O)N(C)C(C)(Cc2ccccc2)C(=O)N1C (racemic) [Example 29] | – | good to very good | – | –
CN1C(=O)C(C)(Cc2ccccc2)NC(=O)C1=Cc1ccccc1C#N (racemic) [Example 39] | good to very good | good to very good | good to very good | –
COc1cccc(Br)c1C=C1C(=O)N(C)C(C)(Cc2ccccc2)C(=O)N1C (racemic) [Example 43] | good to very good | – | – | herbicidal activity against APESV [7]: good (A good herbicidal activity is given at values of at least 70)
CN1C(=O)C(C)(Cc2ccccc2)NC(=O)C1=Cc1ccccc1[N+](=O)[O-] (racemic) [Example 44] | good to very good | good to very good | – | –
CCN1C(=O)C(=Cc2ccccc2[N+](=O)[O-])N(C)C(=O)C1(C)Cc1ccccc1 (racemic) [Example 47] | good to very good | good to very good | – | –
Cc1cccc([N+](=O)[O-])c1C=C1C(=O)N(C)C(C)(Cc2ccccc2)C(=O)N1C (racemic) [Example 56] | good to very good | good to very good | – | –
CN1C(=O)C(C)(Cc2ccc(Cl)cc2)N(C)C(=O)C1=Cc1ccccc1C#N (racemic) [Example 137] | – | – | – | herbicidal activity against GALAP [8]: good (A good herbicidal activity is given at values of at least 70)
CN1C(=O)C(C)(Cc2ccc(F)cc2)N(C)C(=O)C1=Cc1ccccc1C#N (racemic) [Example 138] | good to very good | good to very good | – | –
CCC1(Cc2ccccc2)C(=O)N(C)C(=Cc2ccccc2C#N)C(=O)N1C (stereo not shown) [Example 3, 2-(5-Benzyl-5-ethyl-1,4-dimethyl-3,6-dioxopiperazin-2-ylidenemethyl)-benzonitrile] | good to very good | – | good to very good | –
